These results are taken from patent publication US20100048516A1, “PENETRATION ENHANCER FOR FUNGICIDES” (Bayer CropScience AG, priority 2006, published 2010).

“Also recorded” adds a separate entry of the source.

In one data set the test system is crop plant. As to the kind of experiment: Crop plant tolerance tests of TBEP versus other alkyl ester additives. In kind it is in vivo. To be noted: compared with other alkyl ester additives.
Data set [1] in a line: Penetration test: penetration of radioactively marked active substance through isolated apple leaf cuticles in diffusion cells. The note with it: for % Penetration (after hours): acetone/tap water 20/80% by weight, 20-25° C., rel. humidity 56-60%, mean of 4-8 repetitions. As for the experimental part: In this test, the penetration of active substances through enzymatically isolated cuticles of apple tree leaves was measured. The cuticles represent all green plant parts, such as leaf blade, petiole, stalk, trunk, hypocotyl and many fruits.
Leaves which were cut off in the stage of full development of apple trees of the Golden Delicious variety were used. The isolation of the cuticles was effected in a manner such that • first, leaf disks marked on the underside with dye and punched out were filled by means of vacuum infiltration with a pectinase solution (0.2 to 2% strength by weight) buffered to a pH between 3 and 4, • sodium azide was then added and • the leaf disks thus treated were allowed to stand until disintegration of the original leaf structure and detachment of the noncellular cuticle.
Thereafter, only those cuticles of the upper sides of the leaves which were free of stomata and hairs were further used. They were washed several times alternately with water and a buffer solution at pH 7. The cleaned cuticles obtained were finally drawn onto small Teflon plates and smoothed and dried with a gentle air jet.
In the next step, the cuticle membranes thus obtained were placed in stainless steel diffusion cells (=transport chambers) for membrane transport investigations. For this purpose, the cuticles were placed by means of forceps centrally on the silicone grease-coated edges of the diffusion cells and closed with a likewise greased ring. The arrangement was chosen so that the morphological outside of the cuticles faced outward, i.e. toward the air, while the original inside faced the interior of the diffusion cell. The diffusion cells were filled with water or with a mixture of water and solvent.
For determining the penetration, in each case 10 μl of a spray liquor of the composition mentioned in the examples were applied to the outside of a cuticle.
In each case the solvents listed below in the table (tap water or a mixture with 20% by weight of acetone/80% by weight of tap water) were used in the spray liquors.
After the application of the spray liquors, in each case the solvent was allowed to evaporate, and in each case the chambers were then turned around and placed in thermostated trays, air having a defined temperature and atmospheric humidity being blown onto the outside of the cuticle. The incipient penetration therefore took place at a relative humidity of 60% and a set temperature of 20 or 25° C. The active substance penetration was measured with radioactively marked active substance.

Setting [2] is: after 3 hours, 0.2 g/l active substance without or with 0.5 g/l TBEP, apple leaf cuticles.
Where [3] appears, read: after 24 hours, 0.2 g/l active substance without or with 0.5 g/l TBEP, apple leaf cuticles.

In the case of `CCCCOCCOP(=O)(OCCOCCCC)OCCOCCCC` [TBEP, tributoxyethyl phosphate], the “Crop plant tolerance (in words)” value in the data set with crop plant is “more tolerant than other alkyl ester additives”. Moreover, in data set [1] (summary of tables 1 and 2, apple leaf cuticles), the “Effect of the penetration enhancer on uptake of active substances (in words)” value is “considerable increase in uptake of the active substances; also recorded: advantageously higher increase in uptake of active substances than the penetration enhancers of the prior art”.
Turning to `COc1ccccc1C(=O)NS(=O)(=O)c1ccc(C(=O)NC2CC2)cc1` [cyprosulfamide, 4-cyclopropylaminocarbonyl-N-(2-methoxybenzoyl)benzenesulfonamide], the “% Penetration (after hours)” value is on record as 0.1 (3) % in data set [1] (setting [2]) and 0.3% in data set [1] (setting [3]).
Turning to `CCOC(=O)C(C)Oc1ccc(Oc2nc3ccc(Cl)cc3o2)cc1` (stereo not drawn) [fenoxaprop-P-ethyl, ethyl 2-(4-(6-chlorobenzoxazol-2-yloxy)phenoxy)propionate], the “% Penetration (after 24 hours)” value in data set [1] (apple tree, 24 h, 0.3 g/l) came out at 0.3%. In addition, the “% Penetration (after 48 hours)” value in data set [1] (apple tree, 48 h, 0.3 g/l) worked out at 0.9%.
As for `CCOC(=O)C1=NOC(c2ccccc2)(c2ccccc2)C1` [isoxadifen-ethyl, ethyl 5,5-diphenyl-2-isoxazolinecarboxylate], the “% Penetration (after hours)” value in data set [1] (setting [2]) is listed as 1.7 (3) %; in data set [1] (setting [3]) it was 17.4%.
On the same counts, the results for `CCOC(=O)C1=NN(c2ccc(Cl)cc2Cl)C(C)(C(=O)OCC)C1` (stereo not drawn) [mefenpyr-diethyl, ethyl 1-(2,4-dichlorophenyl)-5-(ethoxycarbonyl)-5-methyl-2-pyrazoline-3-carboxylate] are 0.4 (3) % and 4.9%.
As for `O=C(Nc1ccccc1)Nc1cnns1` [thidiazuron], the “% Penetration (after hours)” value is recorded as 0.6 (6) % in data set [1] (after 6 hours, 0.2 g/l thidiazuron without or with 3 g/l TBEP, apple leaf cuticles) and 0.9% in data set [1] (after 24 hours, 0.2 g/l thidiazuron without or with 3 g/l TBEP, apple leaf cuticles).
